Reference: US20100022559A1, “BISOXIMES AS FUNGICIDES” (BAYER CROPSCIENCE AG, priority 2006, published 2010)

Experiment: logP determination by HPLC on a reversed-phase column (C 18), EEC Directive 79/831 Annex V.A8
Format: physicochemical
Procedure: The stated logP values were determined in accordance with EEC Directive 79/831 Annex V.A8 by HPLC (high performance liquid chromatography) on a reversed-phase column (C 18). Temperature: 43° C.

[1] = method marker [b], isomer A / isomer B / isomer mixture as noted in the cell
[2] = method marker [a] (footnote not shown), isomer A / isomer B / isomer mixture as noted in the cell

## C=C(CON=C(C)c1cccc(C)n1)CON=C(C)c1ncc(Cl)cc1Cl [compound 194]
[1]
  logP: 4.72^b]

## CC(=NOCON=C(C)c1nc(C)c(C)s1)c1nc(C)c(C)s1 [compound 126]
[1]
  logP: 4.46^[b]

## CC(=NOCCCCCCON=C(C)c1cc2ccccc2o1)c1cccc(C)n1 [compound 393]
Value marked [b]
  logP: 5.78^[b]

## Cc1cccc(C=NOCCCON=Cc2cccc(C)n2)n1 [Compound 669]
Method marked [b] in Table 1
  logP: 2.54^[b]

## C=C(CON=C(C)c1cccc(C)n1)CON=C(C)c1cccc(CC(C)C)n1 [compound 352]
Value marked [b]
  logP: 6.03^[b]

## C=C(CO/N=C(\N)c1nc(C)c2c(n1)CCCC2)CO/N=C(\N)c1nc(C)c2c(n1)CCCC2 [compound 43]
[1]
  logP: 2.67^[b]

## CCCc1cccc(C(C)=NOCC(C)CON=C(C)c2cccc(C)n2)n1 (centres unmarked) [Compound 502]
Value marked [b]
  logP: 5.84^[b]

## CC(=NOc1ncnc(ON=C(C)c2cccc(C)n2)c1Cl)c1cccc(C)n1 [compound 729]
Method marked [b] in Table 1
  logP: 3.31^[b]

## CC(=NOCC(C)CON=C(C)c1cc(N2CCCC2)cc(C)n1)c1cc(N2CCCC2)cc(C)n1 (centres unmarked) [Compound 847]
Value marked [a]
  logP: 1.40^[a]
Value marked [c]
  logP: 5.93^[c]

## CC(=NOCCCON=C(C)c1ccnc(C)n1)c1ccnc(C)n1 [compound 161]
[2]
  logP: 3.06^[a]

## Cc1cc(C)nc(/C(N)=N/OCO/N=C(\N)c2nc(C)cc(C)n2)n1 [compound 5]
[1]
  logP: 1.49^[b]

## CCCC(=NOCCCON=C(CCC)c1ncccc1C)c1ncccc1C (single isomer, unassigned) [compound 99]
[2]
  logP: 4.22^[a] (isomer A)

## CC(=NOCC(C)CON=C(C)c1cnnc(C)n1)c1cccc(C)n1 (centres unmarked) [compound 426]
Value marked [b]
  logP: 3.24^[b]

## CC(=NOCC(C)(C)CON=C(C)c1cccc(C)n1)c1ccncc1 [compound 481]
Value marked [b]
  logP: 2.41^[b]

## CC(=NOCC(CON=C(C)c1ccc(C)c(C)n1)C(C)(C)C)c1ccc(C)c(C)n1 (centres unmarked) [Compound 317]
Value marked [b]
  logP: 4.91^[b]
Value marked [c]
  logP: 7.36^[c]

## CC(CON1C(=O)c2ccccc2C1=O)CON1C(=O)c2ccccc2C1=O [IX-1, 2,2′-[(2-methylpropane-1,3-diyl)bis(oxy)]bis(1H-isoindole-1,3(2H)-dione)]
reversed-phase HPLC column (C 18), HCO2H, HPLC reversed-phase column (C 18), 43° C., read-out: logP (HCO2H)
  chromatographic logP: 2.87

## CCC(CC)(C(=O)ON=C(C)c1cccc(C)n1)C(=O)ON=C(C)c1cccc(C)n1 [compound 745]
Method marked [b] in Table 1
  logP: 4.49^[b]

## CC(=NOCCCCCCON=C(C)c1ncccc1C)c1cccc(C)n1 [compound 464]
Value marked [b]
  logP: 4.25^[b]

## C#Cc1cc(C)nc(C(C)=NOCC(C)CON=C(C)c2cc(C#C)cc(C)n2)c1 (centres unmarked) [compound 873]
Value marked [a]
  logP: 6.65^[a]
Value marked [b]
  logP: 6.65^[b]
Value marked [c]
  logP: 6.61^[c]

## CC(=NOCCC(C)ON=C(C)c1nc(C)ccc1C)c1nc(C)ccc1C (single isomer, unassigned) [compound 759]
Method marked [b] in Table 1
  logP: 3.12^[b]
Method marked [c] in Table 1
  logP: 5.02^[c]

## Cc1cccc(C(=NOCCCON=C(c2cccc(C)n2)C2CC2)C2CC2)n1 (mixture of isomers) [Compound 167]
[2]
  logP: 2.85^[a]

## CCOC(=O)C(C)(CON=C(C)c1nc(C)ccc1C)CON=C(C)c1nc(C)ccc1C (centres unmarked) [compound 860]
Value marked [b]
  logP: 3.03[b]
Value marked [c]
  logP: 4.72^[c]

## CC(=NOCC(C)(C)CON=C(CC(C)C)c1cccc(C)n1)c1cccc(C)n1 [Compound 538]
Method marked [b] in Table 1
  logP: 6.47^[b]

## CC(=NOCCCCON=C(c1cccc(C)n1)C1CC1)c1cccc(C)n1 [compound 335]
Value marked [b]
  logP: 3.28^[b]

## COCC#Cc1cc(C)nc(C(C)=NOCC(C)CON=C(C)c2cc(C#CCOC)cc(C)n2)c1 (centres unmarked) [compound 874]
Value marked [a]
  logP: 6.76^[a]
Value marked [b]
  logP: 6.76^[b]
Value marked [c]
  logP: 6.87^[c]

## CC(=NOCC(C)CON=C(C)c1cccc(C#N)n1)c1cccc(C#N)n1 (centres unmarked) [Compound 800]
Value marked [a]
  logP: 4.78^[a]

## CCC(CC)(CON=C(C)c1cc(C)cc(C)n1)CON=C(C)c1cc(C)cc(C)n1 [Compound 811]
Value marked [b]
  logP: 4.79^[b]
Value marked [c]
  logP: 7.36^[c]

## CC(=NOCC(C)(C)CON=C(C)c1cccc(Cc2ccccc2)n1)c1cccc(C)n1 [Compound 364]
Value marked [a]
  logP: 6.47^[a]

## Cc1cccc(C=NOCC(C)CON=Cc2cccc(C)n2)n1 (centres unmarked) [compound 668]
Method marked [b] in Table 1
  logP: 2.28^[b]

## N/C(=N\OC/C=C/CO/N=C(\N)c1ncc(F)cc1F)c1ncc(F)cc1F [compound 723]
Method marked [b] in Table 1
  logP: 2.42^[b]

## CCOc1cc(C)nc(C(C)=NOCC(C)(C)CON=C(C)c2cc(OCC)cc(C)n2)c1 [Compound 841]
Value marked [a]
  logP: 2.00^[a]
Value marked [c]
  logP: 6.90^[c]

## CC(=NOCCCCCCON=C(C)c1cccc(C)n1)c1ccc2c(c1)OCO2 [compound 390]
Value marked [b]
  logP: 5.42^[b]

## COc1cc(C)nc(C(C)=NOCC(C)(C)CON=C(C)c2cc(OC)cc(C)n2)c1 [Compound 840]
Value marked [a]
  logP: 1.5^[a]
Value marked [c]
  logP: 5.79^[c]
